Reference: US20070142317A1, “Topical composition for treatment of skin disorders” (QLT USA, Inc., priority 2003, published 2007)

Legend:
U937 monocytoid cells [1] = assay: TUNEL assay, simultaneous exposure to dCF and dAd (Example 22); format: cell-based
Description: Methods Simultaneous Exposure—U937 monocytoid cells were cultured in the presence of 0, 1, 2.5, 10, 20, 50, 100, 150, 200, and 250 μM dAdo for 2 days. […] At the end of the treatment period, the cells were harvested for analysis by a TUNEL assay, a flow-cytometry-based method to quantify the percentage of cells that have undergone apoptosis. The level of apoptosis is expressed as “% FITC shift”. As a positive control, the cells were exposed to 5 mM camptothecin for 2 days.

U937 monocytoid cells [2] = assay: TUNEL assay, dAd added at different times after dCF wash-out (Example 22); format: cell-based; conditions: dCF 0 μM 2 days, wash, 2 more days
Description: At 0, 6, 24, and 48 hours, 50 μM dAd was added and the cells were incubated for an additional 2 days. At the end of the treatment period, the cells were harvested for analysis by a TUNEL assay, a flow-cytometry-based method to quantify the percentage of cells that have undergone apoptosis. The level of apoptosis is expressed as “% FITC shift”. As a positive control, the cells were exposed to 5 mM camptothecin for 2 days.

U937 monocytoid cells [3] = assay: TUNEL assay, dAd, adenosine and adenine dose ranging (Example 24); format: cell-based; conditions: 2 days, no dCF
Description: U937 monocytoid cells were cultured in the presence of dAd at various concentrations of dAd (0, 50, 75, 100, 250 and 1000 micromoles/liter). The cells were incubated in dAd for 2 days. At the end of the treatment period, the cells were harvested for analysis by a TUNEL assay, a flow-cytometry-based method to quantify the percentage of cells that have undergone apoptosis. The level of apoptosis expressed as “% FITC shift”. The level of cell cycle arrest is expressed as “% PI shift”. As a positive control, the cells were exposed to 5 mM camptothecin for 2 days.

Jurkat cells [4] = assay: Caspase-3 induction by flow cytometry (Example 31); format: cell-based; conditions: drug 500 μM, PHA-activated cells
Description: (§1) In a search for a topical agent that can locally deplete levels of T-cells in the skin, apoptotic compounds were evaluated for their mechanisms of action. The ability that […] induce apoptosis by the same mechanisms was examined by cytokine secretion. […] Caspase-3 and cytokine (IL-2, IL-6, TNF, and IFN-γ) levels were determined and compared to controls at 23 and 46 hours. FdA was incorporated to evaluate the effect of the halogen group and Ara-C for its overlapping mechanisms of action. […] At the end of the treatment period, the cells were harvested and Caspase-3 induction was determined using a flow-cytometry-based method to quantify the percentage of cells that induced Caspase-3. The level of apoptosis is expressed as “% FITC shift”. Cytokine secretion (IL-2, IL-6, TNF, and IFN-γ) was measured at the same time by ELISA and is expressed in pg/mL. […]

U-937 cells [5] = assay: Caspase-3 induction by flow cytometry (Example 31); format: cell-based; conditions: drug 500 μM, LPS-activated cells
Description: as §1

U-937 cells [6] = assay: Cytokine secretion by ELISA (Example 31); format: cell-based; conditions: for Cytokine Secretion IL-6 pg/ml Mean of 3 Replicates: drug 500 μM, LPS-activated cells
Description: as §1

Jurkat cells [7] = assay: Cytokine secretion by ELISA (Example 31); format: cell-based; conditions: for Cytokine Secretion IL-2 pg/ml Mean of 3 Replicates: PHA-activated cells
Description: In a search for a topical agent that can locally deplete levels of T-cells in the skin, apoptotic compounds were evaluated for their mechanisms of action. The ability that […] induce apoptosis by the same mechanisms was examined by cytokine secretion. […] At the end of the treatment period, the cells were harvested and Caspase-3 induction was determined using a flow-cytometry-based method to quantify the percentage of cells that induced Caspase-3. The level of apoptosis is expressed as “% FITC shift”. Cytokine secretion (IL-2, IL-6, TNF, and IFN-γ) was measured at the same time by ELISA and is expressed in pg/mL.

U-937 cells [8] = assay: Toxicity to U-937 cells (summary in Example 29); format: cell-based
[9] = test system: monocytes and lymphocytes; assay: Toxicity of dAdo to monocytes and lymphocytes; format: cell-based
U937 monocytoid cells [10] = assay: TUNEL assay, dAd added at different times after dCF wash-out (Example 22); format: cell-based; conditions: dCF 0 μM 2 days, wash, 2 more days; remark: listed apart in the source
lymphocytes = conditions: cited from earlier work
[11] = Calculated concentration in the skin assuming 7% penetration
[12] = dAd 10 μM alone (dCF 0), 2 days
[13] = dAd 20 μM alone (dCF 0), 2 days
[14] = dAd 50 μM alone (dCF 0), 2 days
[15] = dAd 100 μM alone (dCF 0), 2 days
[16] = dAd 150 μM alone (dCF 0), 2 days
[17] = dAd 200 μM alone (dCF 0), 2 days
[18] = dAd 250 μM alone (dCF 0), 2 days
[19] = 50 μM dAd added 0 hr after wash-out
[20] = 50 μM dAd added 6 hr after wash-out
[21] = 50 μM dAd added 24 hr after wash-out
[22] = 50 μM dAd added 48 hr after wash-out
[23] = drug 50 uM, listed as dAd (Acros)
[24] = drug 50 uM, listed as dAd (Sigma)
[25] = drug 100 uM, listed as dAd (Acros)
[26] = drug 100 uM, listed as dAd (Sigma)
[27] = drug 250 uM, listed as dAd (Acros)
[28] = drug 250 uM, listed as dAd (Sigma)
[29] = drug 1000 uM, listed as dAd (Acros)
[30] = drug 1000 uM, listed as dAd (Sigma)

Q: Which results are given for `Nc1ncnc2c1ncn2[C@H]1C[C@H](O)[C@@H](CO)O1` [dAd, 2′-deoxyadenosine]?
A: concentration at which dAd itself induces apoptosis (U937 monocytoid cells [1]; U937 cells, no dCF): 100 to 200 µM; concentrations at which dAd alone is toxic (U937 monocytoid cells [1]; absence of dCF, 2 days): > 100 µM; % FITC Shift (U937 monocytoid cells [1]; dAd 1 μM alone (dCF 0), 2 days): 1.2%; % PI Shift (U937 monocytoid cells [1]; dAd 1 μM alone (dCF 0), 2 days): 1.1%; % FITC Shift (U937 monocytoid cells [1]; [12]): 1.8%; % PI Shift (U937 monocytoid cells [1]; [12]): 1.5%; % FITC Shift (U937 monocytoid cells [1]; [13]): 1.7%; % PI Shift (U937 monocytoid cells [1]; [13]): 1.8%; % FITC Shift (U937 monocytoid cells [1]; [14]): 1.5%; % PI Shift (U937 monocytoid cells [1]; [14]): 3.8%; % FITC Shift (U937 monocytoid cells [1]; [15]): 33.7%; % PI Shift (U937 monocytoid cells [1]; [15]): 15.9%; % FITC Shift (U937 monocytoid cells [1]; [16]): 78.3%; % PI Shift (U937 monocytoid cells [1]; [16]): 17.3%; % FITC Shift (U937 monocytoid cells [1]; [17]): 62.6%; % PI Shift (U937 monocytoid cells [1]; [17]): 19.7%; % FITC Shift (U937 monocytoid cells [1]; [18]): 66.4%; % PI Shift (U937 monocytoid cells [1]; [18]): 17.8%; % FITC Shift (U937 monocytoid cells [2]; [19]): 1.6%; % FITC Shift (U937 monocytoid cells [2]; [20]): 2.2%; % FITC Shift (U937 monocytoid cells [2]; [21]): 2.2%; % FITC Shift (U937 monocytoid cells [2]; [22]): 1.0%; concentration at which cell cycle arrest begins (U937 monocytoid cells [3]): 75 µM; concentration at which apoptosis is induced (U937 monocytoid cells [3]; progressively more at 250 and 1000): 100 µM; % FITC Shift (U937 monocytoid cells [3]; [23]): 0.7%; % PI Shift (U937 monocytoid cells [3]; [23]): 2.9%; % FITC Shift (U937 monocytoid cells [3]; [24]): 1.5%; % PI Shift (U937 monocytoid cells [3]; [24]): 3.2%; % FITC Shift (U937 monocytoid cells [3]; drug 75 uM): 1.8%; % PI Shift (U937 monocytoid cells [3]; drug 75 uM, listed as dAd (Acros)): 7.1%; % PI Shift (U937 monocytoid cells [3]; drug 75 uM, listed as dAd (Sigma)): 8.8%; % FITC Shift (U937 monocytoid cells [3]; [25]): 3.5%; % PI Shift (U937 monocytoid cells [3]; [25]): 9.8%; % FITC Shift (U937 monocytoid cells [3]; [26]): 9.0%; % PI Shift (U937 monocytoid cells [3]; [26]): 12.1%; % FITC Shift (U937 monocytoid cells [3]; [27]): 54.1%; % PI Shift (U937 monocytoid cells [3]; [27]): 14.6%; % FITC Shift (U937 monocytoid cells [3]; [28]): 65.8%; % PI Shift (U937 monocytoid cells [3]; [28]): 12.0%; % FITC Shift (U937 monocytoid cells [3]; [29]): 80.2%; % PI Shift (U937 monocytoid cells [3]; [29]): 32.6%; % FITC Shift (U937 monocytoid cells [3]; [30]): 79.2%; % PI Shift (U937 monocytoid cells [3]; [30]): 29.5%; Caspase-3 Induction % FITC Shift - Mean of 3 Replicates (Jurkat cells [4]; 23 hr): 73%; Caspase-3 Induction % FITC Shift - Mean of 3 Replicates (Jurkat cells [4]; 46 hr): 92%; Caspase-3 Induction % FITC Shift - Mean of 3 Replicates (U-937 cells [5]; 23 hr): 67%; Caspase-3 Induction % FITC Shift - Mean of 3 Replicates (U-937 cells [5]; 46 hr): 43%; Cytokine Secretion IL-6 pg/ml Mean of 3 Replicates (U-937 cells [6]; 23 hr): 4 pg/mL; IL-6 inhibition after Caspase-3 induction (U-937 cells [6]; 46 hours, compared to no drug+LPS): 55%; Cytokine Secretion IL-6 pg/ml Mean of 3 Replicates (U-937 cells [6]; 46 hr): 4 pg/mL; Cytokine Secretion IL-2 pg/ml Mean of 3 Replicates (Jurkat cells [7]; 23 hr, drug 500 μM): 17 pg/mL; IL-2 inhibition (Jurkat cells [7]; 46 hours, compared to no drug+PHA): 61%; Cytokine Secretion IL-2 pg/ml Mean of 3 Replicates (Jurkat cells [7]; 46 hr, drug 500 μM): 49 pg/mL; IL-2 concentration (Jurkat cells [7]; Jurkat cells activated by PHA, 46 hours, drug 500 μM): 49 pg/mL; concentration toxic to U-937 cells on its own (U-937 cells [8]): 250 µM; concentrations toxic to monocytes and lymphocytes [9]: greater than 100 μM; % PI Shift (U937 monocytoid cells [10]; [19]): 1.4%; % PI Shift (U937 monocytoid cells [10]; [20]): 1.3%; % PI Shift (U937 monocytoid cells [10]; [21]): 1.1%; % PI Shift (U937 monocytoid cells [10]; [22]): 2.0%; potentiation of the growth inhibitory effect of dCF (lymphocytes): up to 1,000 fold; Concentration in the skin assuming 7% penetration ([11]; topical concentration 0.00005%): 0.14 µM; Concentration in the skin assuming 7% penetration ([11]; topical concentration 0.0005%): 1.39 µM; Concentration in the skin assuming 7% penetration ([11]; topical concentration 0.005%): 13.93 µM; Concentration in the skin assuming 7% penetration ([11]; topical concentration 0.01%): 27.86 µM; Concentration in the skin assuming 7% penetration ([11]; topical concentration 0.05%): 139.31 µM; Concentration in the skin assuming 7% penetration ([11]; topical concentration 0.1%): 278.62 µM; Concentration in the skin assuming 7% penetration ([11]; topical concentration 0.5%): 1393.09 µM; Concentration in the skin assuming 7% penetration ([11]; topical concentration 1%): 2786.18 µM; Concentration in the skin assuming 7% penetration ([11]; topical concentration 3%): 8358.54 µM; Concentration in the skin assuming 7% penetration ([11]; topical concentration 5%): 13930.90 µM
